In PMC10062145 (Journal of Virology, 2023):
Residues, ends and D or L forms follow the SMILES beside them. *: point of attachment. Cbz = O=C(OCc1ccccc1)*

What was measured:
NDV F48E9 [1] = experiment: microbe, parasite or virus in culture; assay type: cell-based, Newcastle disease virus; settings: for IC50: avian paramyxovirus 1, 24 h
HSP90β [2] = target: T1, HSP90β (Gallus gallus, UniProt Q04619); experiment: Cellular thermal shift assay (CETSA), HSP90β; assay type: binding; settings: 200 μM, DF-1 cell lysate
T1 construct: endogenous in cells; host or cells: DF-1 cell lysate

CDV = experiment: microbe, parasite or virus in culture; assay type: cell-based, canine distemper virus
F48E9 L protein = assay type: cell-based, Newcastle disease virus
PPRV = experiment: microbe, parasite or virus in culture; assay type: cell-based, peste des petits ruminants virus
NP, P protein = assay type: cell-based, Newcastle disease virus
Wnt/β-catenin pathway = assay type: cell-based
[3] = tested on: NDV Blackbird/China/08(IX); experiment: microbe, parasite or virus in culture; assay type: cell-based, Newcastle disease virus; settings: avian paramyxovirus 1, 24 h, read-out: IC50 Blackbird/China/08(IX)
IFN-β = assay type: cell-based
NDV F48E9 [4] = assay type: cell-based, Newcastle disease virus
MX1 = assay type: cell-based
[5] = tested on: genes downstream of the Wnt/β-catenin pathway; assay type: cell-based
VSV = experiment: microbe, parasite or virus in culture; assay type: cell-based, vesicular stomatitis virus
in vitro = settings: chicken
OASL = assay type: cell-based
[6] = tested on: PPRV, CDV, VSV, PRRSV, AIV, PRV; experiment: organism not typed; assay type: cell-based; settings: read-out: IC50 against these viruses (PPRV, CDV, VSV, PRRSV, AIV, PRV)
[7] = tested on: NDV PPMV-1/SX-01/Ch/15(VI); experiment: microbe, parasite or virus in culture; assay type: cell-based, Newcastle disease virus; settings: avian paramyxovirus 1, 24 h, read-out: IC50 PPMV-1/SX-01/Ch/15(VI)
AIV = experiment: microbe, parasite or virus in culture; assay type: cell-based, avian influenza virus
chicken IFN-β promoter = assay type: cell-based
HSP90β [8] = target: T1, HSP90β; experiment: Drug affinity responsive target stability (DARTS), HSP90β; assay type: binding; settings: 200 μM, DF-1 cell lysate, 50 ng of pronase
NDV La sota (II) = experiment: microbe, parasite or virus in culture; assay type: cell-based, Newcastle disease virus; settings: avian paramyxovirus 1, 24 h, read-out: IC50 La sota (II)
NDV F48E9 [9] = assay type: cell-based, Newcastle disease virus; remark: listed apart in the source
PRV = experiment: microbe, parasite or virus in culture; assay type: cell-based, pseudorabies virus
NDV F48E9 [10] = assay type: cell-based, Newcastle disease virus; remark: listed apart in the source
GSK-3β [11] = assay type: binding
GSK-3β [12] = assay type: binding; remark: listed apart in the source
PRRSV = experiment: microbe, parasite or virus in culture; assay type: cell-based, porcine reproductive and respiratory syndrome virus
β-catenin = assay type: cell-based

T1 sequence (Q04619 whole entry): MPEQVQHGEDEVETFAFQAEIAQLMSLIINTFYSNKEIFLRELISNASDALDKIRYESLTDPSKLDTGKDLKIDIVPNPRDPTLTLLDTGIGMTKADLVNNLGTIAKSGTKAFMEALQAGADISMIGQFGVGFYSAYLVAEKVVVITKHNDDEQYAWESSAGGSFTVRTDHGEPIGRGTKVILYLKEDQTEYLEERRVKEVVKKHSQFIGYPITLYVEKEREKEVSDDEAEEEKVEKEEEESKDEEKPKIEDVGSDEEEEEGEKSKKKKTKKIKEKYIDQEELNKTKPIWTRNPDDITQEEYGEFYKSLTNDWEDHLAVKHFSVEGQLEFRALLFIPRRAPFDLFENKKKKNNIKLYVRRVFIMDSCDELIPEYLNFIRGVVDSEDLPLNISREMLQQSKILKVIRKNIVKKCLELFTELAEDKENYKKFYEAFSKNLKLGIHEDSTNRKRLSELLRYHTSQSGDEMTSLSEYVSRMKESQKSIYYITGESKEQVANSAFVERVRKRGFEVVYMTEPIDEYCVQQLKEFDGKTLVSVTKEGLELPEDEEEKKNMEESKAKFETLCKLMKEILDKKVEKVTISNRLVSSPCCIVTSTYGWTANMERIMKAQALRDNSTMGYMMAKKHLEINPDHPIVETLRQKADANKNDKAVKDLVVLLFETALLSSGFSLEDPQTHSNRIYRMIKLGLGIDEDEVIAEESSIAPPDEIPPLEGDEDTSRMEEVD

In the case of `Cc1cc(/C=C2\SC(=O)N(c3ccccc3)C2=O)c(C)n1-c1cccnc1` [iCRT14], the “effect on the proliferation of NDV” value (NDV F48E9 [1]) is reported as “no effect”.

With `CCCCn1c2cc(O)ccc2c2ccnc(C)c21` [compound 11, 9-butyl-harmol] the “thermal stability of cellular HSP90β (CETSA)” value (HSP90β [2]) was “increased the thermal stability”, the “inhibitory rate (reduction) against CDV” value (CDV) was “higher than 99%” and the “reduction of CDV mRNA” value (CDV) was 100 fold. The IC50 (CDV; canine distemper virus, Vero, 24 h, read-out: IC50 CDV) was 400 ± 120 nM, the “expression of L” value (F48E9 L protein) was “significant reduction” and the “inhibitory rate (reduction) against PPRV” value (PPRV) was “higher than 99%”. The “reduction of PPRV mRNA” value (PPRV) was 100 fold, the IC50 (PPRV; peste-des-petits-ruminants virus, Vero, 24 h, read-out: IC50 PPRV) was 380 ± 60 nM and the “expression of NP and expression of P” value (NP, P protein) was “not affected”. For the same compound, the TOPFlash/FOPFlash luciferase activity (Wnt/β-catenin pathway) was “significantly activated”, the IC50 [3] was 630 ± 300 nM and the “expression of IFN-β with NDV infection” value (IFN-β) was 1.95 fold. For the same compound, the “expression of IFN-β without NDV infection” value (IFN-β) was 3.04 fold, the “entry of NDV” value (NDV F48E9 [4]) was “no effect” and the “expression of MX1 upon F48E9 infection” value (MX1) was 3.13 fold. For the same compound, the “MYC upregulation (transcriptome)” value [5] was 2.1287 fold, the “PPARgamma upregulation (transcriptome)” value [5] was 2.7893 fold and the “WISP1 upregulation (transcriptome)” value [5] was 5.2201 fold. The “reduction in mRNA expression level of VSV” value (VSV) was over 80%, the IC50 (VSV; Vesicular stomatitis virus, BHK-21, 24 h, read-out: IC50 VSV) was 430 ± 160 nM and the CC50 (in vitro) was over 50000 nM. The “inhibitory rate (reduction compared to DMSO-treated cells), primary screening” value (NDV F48E9 [1]) was “higher than 99%”, the “reduction in infectious virus particle production, high dose of NDV” value (NDV F48E9 [1]) was 3.08 Log and the “reduction of infectious virus particle production” value (NDV F48E9 [1]) was 5.26 Log. For the same compound, the IC50 (NDV F48E9 [1]) was 490 ± 110 nM, the “expression of OASL upon F48E9 infection” value (OASL) was 2.51 fold and the IC50 [6] was 380 to 810 nM. For the same compound, the IC50 [7] was 710 ± 260 nM, the “reduction in mRNA expression level of AIV” value (AIV) was over 80% and the IC50 (AIV; unidentified influenza virus, A549, 24 h, read-out: IC50 AIV) was 530 ± 180 nM. The “IFN-β promoter activity with NDV infection” value (chicken IFN-β promoter) was 2.89 fold, the “IFN-β promoter activity without NDV infection” value (chicken IFN-β promoter) was 4.90 fold and the “pronase-induced digestion of HSP90β (DARTS)” value (HSP90β [8]) was “prevented”. For the same compound, the IC50 (NDV La sota (II)) was 580 ± 80 nM, the NDV adsorption (NDV F48E9 [9]) was “not inhibited” and the “reduction of mRNA of PRV” value (PRV) was 66.83%. For the same compound, the IC50 (PRV; Suid alphaherpesvirus 1, BHK-21, 24 h, read-out: IC50 PRV) was 810 ± 110 nM, the “viral inhibition in time-of-addition study” value (NDV F48E9 [10]) was “significant viral inhibition” and the “thermal stability of GSK-3β (CETSA)” value (GSK-3β [11]) was “strongly changed the thermal stability”. The “proteolysis of GSK-3β by pronase (DARTS)” value (GSK-3β [12]) was “less sensitive to proteolysis”, the “reduction in mRNA expression level of PRRSV” value (PRRSV) was over 80% and the IC50 (PRRSV; Porcine reproductive and respiratory syndrome virus, MARC145, 24 h, read-out: IC50 PRRSV) was 540 ± 150 nM.

With `COc1ccc2c(c1)[nH]c1c(C)nccc12` [harmine, reference compound] the “effect on NDV proliferation (harmine)” value (NDV F48E9 [1]) was “no effect” and the “anti-PRV activity (harmine)” value (PRV) was “excellent”.

In the case of `COC[C@H]1OC(=O)c2coc3c2[C@@]1(C)C1=C(C3=O)[C@@H]2CCC(=O)[C@@]2(C)C[C@H]1OC(C)=O` [wortmannin], the “amounts of β-catenin in NDV-infected cells” value (β-catenin) is reported as “no effect”.

For `C=CCNC1=C2C[C@@H](C)C[C@H](OC)[C@H](O)[C@@H](C)/C=C(\C)[C@H](OC(N)=O)[C@@H](OC)/C=C\C=C(/C)C(=O)NC(=CC1=O)C2=O` [17-AAG], the “reduction of infectious virus particle production” value (NDV F48E9 [1]) was 4.19 Log.

Compound `NC(=O)c1ncn([C@@H]2O[C@H](CO)[C@@H](O)[C@H]2O)n1` [Ribavirin, reference compound] has an IC50 [3] of 10400 ± 2850 nM, an IC50 (NDV F48E9 [1]) of 8620 ± 1440 nM and an IC50 [7] of 11600 ± 2130 nM. It also gave an IC50 (NDV La sota (II)) of 7970 ± 1590 nM.

In the case of `CC(C)C[C@@H](C=O)NC(=O)[C@H](CC(C)C)NC(=O)[C@H](CC(C)C)NC(=O)OCc1ccccc1` [MG-132] (Cbz-Leu-Leu-Leu-aldehyde), the “amounts of β-catenin in NDV-infected cells” value (β-catenin) is reported as “significantly restored”.

With `[Cl-].[Li+]` [LiCl, reference compound] the “expression of IFN-β” value (IFN-β) was “enhanced” and the “reduction in infectious virus particle production” value (NDV F48E9 [1]) was 2.69 Log.
